Laboratory results published in publication PMC10812672, “Short Antimicrobial Peptide Derived from the Venom Gland Transcriptome of Pamphobeteus verdolaga Increases Gentamicin Susceptibility of Multidrug-Resistant Klebsiella pneumoniae” (Antibiotics, 2023).
Ends that are not written are not given here.

Legend:
E. coli ATCC® 25922 = assay type: cell-based, Escherichia coli
Description: (§1) The nine AMPs identified in the initial screening were evaluated at concentrations between 1.56–200 µM, against E. coli ATCC® 25922, S. aureus ATCC® 29213, E. faecalis ATCC® 49532, P. aeruginosa ATCC® 9027, and K. pneumoniae ATCC® BAA-1705 (Supplementary Figures S2–S6). […] Only PvAMP66 and PvAMP172 reached the MBC for S. aureus at 50 µM and 100 µM, respectively (Table 2).
(§2) The evaluation of the antimicrobial activity of the peptides was conducted using the CLSI’s broth microdilution method for bacterial susceptibility testing. For the screening phase, peptides were evaluated at a single 30 μM concentration, in triplicate and in three independent assays, against the E. coli ATCC® 8739, E. coli ATCC® 25922, S. aureus ATCC® 6538, or S. aureus ATCC® 29213 reference USP and CLSI strains. For the determination of MIC, MBC, or IC50, peptides or antibiotics were evaluated in concentrations between 1.56–200 µM. These evaluations were conducted in triplicate and in three independent assays, against the E. coli ATCC® 25922, S. aureus ATCC® 29213, E. faecalis ATCC® 49532, P. aeruginosa ATCC® 9027, and K. pneumoniae ATCC® BAA-1705, or the clinically isolated MDR strain. In detail, 1 mL of a glycerol stock solution of the ATCC® or clinically isolated bacterial strain was added to 9 mL of Mueller-Hinton Broth and incubated for 18 h, 180 rpm and 37 °C (Incubator 1000, Heidolph Instruments, Schwabach, Germany). After the incubation, 1 mL of the previous solution was transferred to a new recipient containing 9 mL of fresh Mueller-Hinton broth and incubated for 4 h, 180 rpm and 37 °C (Incubator 1000, Heidolph Instruments, Schwabach, Germany). During the second incubation, the peptides or the antibiotics were dissolved in PBS pH 7.20 in concentrations between 19.53–2500 µM (MC5 Micro Balance, Sartorius AG, Göttingen, Germany). An amount of 10 µL of either peptide or antibiotic was dispensed in triplicate in 96-well flat bottom culture plates, along with 10 µL of PBS (Negative activity control), BTM-P1 (Positive activity control), or 10 µL of Mueller-Hinton broth (Blank); then, 110 µL of Mueller-Hinton broth was poured in all wells. Following this, the bacteria were suspended in Mueller-Hinton broth up to a concentration of approximately 1.50 × 10^8 CFU/mL, as measured by optical density at 600 nm between 0.06 to 0.11 (0.5 McFarland standard), in a Multiskan SkyHigh spectrophotometer (ThermoFisher Scientific, Waltham, MA, USA). Amounts of 5 µL of the 1.50 × 10^8 CFU/mL suspension were added to each well (except for the blank) for a final well concentration of approximately 6 × 10^6 CFU/mL. The plate was incubated for 24 h at 37 °C (BE 500, Memmert GmbH, Büchenbach, Germany) and optical density was measured at 600 nm in a Multiskan SkyHigh spectrophotometer (ThermoFisher Scientific, Waltham, MI, USA). Following the measurement of optical density, plates were visually inspected to determine the MIC. Subsequently, 100 µL of the concentration associated to the MIC and 100 µL of the next higher concentration were added to Petri dishes containing Mueller-Hinton Agar. The dishes were then incubated for 24 h at 37 °C (BE 500, Memmert GmbH, Büchenbach, Germany). After incubation, the Petri dishes were visually inspected, and the MBC was determined in the absence of growth. IC50 values were interpolated from regressions with correlation values above 0.70. Growth inhibition percentages were calculated as follows: Growth inhibition %=1−AbsPEPTIDE or ANTIBIOTIC−Median AbsBLANK/Median AbsPBS−Median AbsBLANK×100

P. aeruginosa ATCC® 9027 = assay type: cell-based, Pseudomonas aeruginosa
Description: as §1, §2

[1] = test system: K. pneumoniae ATCC® BAA-1705; assay type: cell-based, Klebsiella pneumoniae
Description: as §1
The evaluation of the antimicrobial activity of the peptides was conducted using the CLSI’s broth microdilution method for bacterial susceptibility testing. For the screening phase, peptides were evaluated at a single 30 μM concentration, in triplicate and in three independent assays, against the E. coli ATCC® 8739, E. coli ATCC® 25922, S. aureus ATCC® 6538, or S. aureus ATCC® 29213 reference USP and CLSI strains. […] Following this, the bacteria were suspended in Mueller-Hinton broth up to a concentration of approximately 1.50 × 10^8 CFU/mL, as measured by optical density at 600 nm between 0.06 to 0.11 (0.5 McFarland standard), in a Multiskan SkyHigh spectrophotometer (ThermoFisher Scientific, Waltham, MA, USA). […] The plate was incubated for 24 h at 37 °C (BE 500, Memmert GmbH, Büchenbach, Germany) and optical density was measured at 600 nm in a Multiskan SkyHigh spectrophotometer (ThermoFisher Scientific, Waltham, MI, USA). […]

[2] = test system: human red blood cells (hRBCs); assay: Hemolytic activity; assay type: cell-based
Description: The cytotoxicity of PvAMP66 was assessed in vitro against human red blood cells (hRBCs) and human peripheral blood mononuclear cells (hPBMCs) using concentrations of 1.56–200 µM. At the highest concentration, PvAMP66 induced 60% hemolysis in human erythrocytes (Figure 3a), and a decrease in viability of approximately 40% in the hPBMCs (Figure 3b). […] Ratios between CC50 or HC50, and the IC50 values registered for the bacterial strains, indicate that PvAMP66 has higher selectivity for interacting with prokaryotic membranes (Table 4).
Human red blood cells (hRBCs) were obtained from the Blood Bank of the School of Microbiology of the University of Antioquia in Medellín, Colombia. Ten mL of hRBCs were diluted in 10 mL of PSB pH 7.20, mixed by inversion, and centrifuged five times at 4 °C, 1000× g for 10 min (Universal 32 R, Hettich Group, Kirchlengern, Westphalia, Germany). […] Then, the supernatant was transferred to 96-well flat bottom culture plates without transferring of the RBC pellet, and hemoglobin release was measured at 420 nm (Multiskan SkyHigh, ThermoFisher Scientific, Waltham, MA, USA). All peptides were evaluated in three independent assays. The hemolysis percentage was calculated as follows: Hemolysis %=AbsPEPTIDE−Median AbsPBS/Median AbsTRITON−Median AbsPBS×100

[3] = 1.56–200 µM, 24 h 37 °C, visual inspection, triplicate, three independent assays
[4] = growth inhibition OD600, 95% confidence interval in parentheses

WKKIKKFF-NH2 [PvAMP66]
MIC (E. coli ATCC® 25922; [3]): 50 µM | IC50 (E. coli ATCC® 25922; growth inhibition OD600, interpolated from regression, 95% confidence interval in parentheses, read-out: IC50): 38.3 µM | MBC (E. coli ATCC® 25922; plating on Mueller-Hinton agar, 24 h 37 °C, absence of growth): 50 µM | MIC (P. aeruginosa ATCC® 9027; [3]): 12.5 µM | IC50 (P. aeruginosa ATCC® 9027; [4]): 12.7 µM | MBC (P. aeruginosa ATCC® 9027; plating on Mueller-Hinton agar, absence of growth): 12.5 µM | MIC ([1]; 1.56–200 µM, 24 h 37 °C, visual inspection): 100 µM | IC50 [1, 4]: 45.5 µM | HC50 (Hemolytic Concentration 50) ([2]; 10% v/v hRBC in PBS pH 7.20, 1 h 37 °C, hemoglobin at 420 nm, 1.56–200 µM, logistic regression, 95% CI in parentheses, three independent assays): 132.96 (118.82–151.21) µM | hemolysis ([2]; human erythrocytes, highest concentration (200 µM), 1 h 37 °C): 60%
